From patent US9192601B2, “Methods for enhancing muscle performance and tone” (Salk Institute for Biological Studies, priority 2006, dated 2015)

Legend:
quadriceps muscle = assay: Microarray analysis of quadriceps (Affymetrix mouse genome 430A 2.0); assay type: in vivo
[1] = test system: myoglobin, UCP3, cytochrome c (CYCS) and SCDl; assay: Western blotting of oxidative biomarkers in quadriceps; assay type: in vivo, mouse; settings: combined exercise and GW1516 vs either alone
Method: In addition to gene expression, protein expression was determined for selective oxidative biomarkers including myoglobin, UCP3, cytochrome c (CYCS) and SCDl, using Western blotting. Protein homogenates were prepared from quadriceps muscle, separated by SDS polyacrylamide gel electrophoresis, transferred to blotting membrane and probed with antibodies specific for myoglobin (Dako), UCP3 (Affinity Bioreagents), cytochrome c (Santacruz) SCDl (Santacruz), and, as a loading control, tubulin (Sigma).

[2] = GW + Tr: GW1516 + exercise training, quadriceps
[3] = GW + Tr: GW1516 + exercise training, quadriceps, listed as GW
[4] = GW: GW1516 alone, sedentary, quadriceps, — = not regulated

In the case of `Cc1cc(SCc2sc(-c3ccc(C(F)(F)F)cc3)nc2C)ccc1OCC(=O)O` [GW1516, (2-methyl-4(((4-methyl-2-(4-trifluoromethylphenyl)-1,3-thiazol-5-yl)methyl)sulfanyl)phenoxy)acetic acid], the “number of genes regulated in quadriceps” value (quadriceps muscle; GW1516 treatment alone) is reported as 96 genes, the 1810073N04Rik expression (quadriceps muscle; [2]) is reported as 2.326 and the 2310076L09Rik expression (quadriceps muscle; [2]) is reported as 1.868. For the same compound, the Abcb1a expression (quadriceps muscle; [2]) was 10.322, the Acaa2 expression (quadriceps muscle; [2]) was 1.926 and the Acadl expression (quadriceps muscle; [2]) was 2.549. It also gave an Acat2 expression (quadriceps muscle; [2]) of 1.625, an Acly expression (quadriceps muscle; [2]) of 2.606 and an Acp5 expression (quadriceps muscle; [2]) of 3.91. The “Adfp (adipose differentiation related protein) expression” value (quadriceps muscle; [2]) was 2.009, the Adipoq expression (quadriceps muscle; [2]) was 3.082 and the Adrb3 expression (quadriceps muscle; [2]) was 3.83. It also gave an Aldh1a7 expression (quadriceps muscle; [2]) of 3.862, an Angptl4 expression (quadriceps muscle; [2]) of 5.495 and an Aplp2 expression (quadriceps muscle; [2]) of 1.937. It also gave an Arcn1 expression (quadriceps muscle; [2]) of 1.617, an Asb15 expression (quadriceps muscle; [2]) of 1.78 and an Atf3 expression (quadriceps muscle; [2]) of 1.802. It also gave a BC054059 expression (quadriceps muscle; [2]) of 5.08, a Btg2 expression (quadriceps muscle; [2]) of 1.601 and a C530043G21Rik expression (quadriceps muscle; [2]) of 1.5. The Car3 expression (quadriceps muscle; [2]) was 2.339, the Cat expression (quadriceps muscle; [2]) was 1.82 and the Cd36 expression (quadriceps muscle; [2]) was 1.584. It also gave a Cdo1 expression (quadriceps muscle; [2]) of 3.266, a Cebpa expression (quadriceps muscle; [2]) of 2.168 and a Cfd expression (quadriceps muscle; [2]) of 2.828. For the same compound, the Cidea expression (quadriceps muscle; [2]) was 49.625, the Cidec expression (quadriceps muscle; [2]) was 4.771 and the Clcn5 expression (quadriceps muscle; [2]) was 2.333. For the same compound, the Cldn5 expression (quadriceps muscle; [2]) was 1.545, the Cpt1a expression (quadriceps muscle; [2]) was 2.753 and the Crybb1 expression (quadriceps muscle; [2]) was 2.457. For the same compound, the Cyp2e1 expression (quadriceps muscle; [2]) was 2.941, the D4Wsu53e expression (quadriceps muscle; [2]) was 1.586 and the Dbi expression (quadriceps muscle; [2]) was 1.936. It also gave a Dgat2 expression (quadriceps muscle; [2]) of 2.784, a Dnajb1 expression (quadriceps muscle; [2]) of 3.59 and a Dusp7 expression (quadriceps muscle; [2]) of 1.661. It also gave a Dync1i2 expression (quadriceps muscle; [2]) of 1.705, an Egr1 expression (quadriceps muscle; [2]) of 2.577 and a Fabp3 expression (quadriceps muscle; [2]) of 1.833. The Fabp4 expression (quadriceps muscle; [2]) was 2.189, the Fasn expression (quadriceps muscle; [2]) was 6.323 and the Fbp2 expression (quadriceps muscle; [2]) was 2.808. It also gave a Fos expression (quadriceps muscle; [2]) of 3.9, a Gpam expression (quadriceps muscle; [2]) of 2.207 and a Gpiap1 expression (quadriceps muscle; [2]) of 1.83. The Hba-a1 expression (quadriceps muscle; [2]) was 1.632, the “Hbb-b2|Hbb-y expression” value (quadriceps muscle; [2]) was 1.626 and the Hip1r expression (quadriceps muscle; [2]) was 1.75. It also gave a Hipk3 expression (quadriceps muscle; [2]) of 1.694, a Hp expression (quadriceps muscle; [2]) of 1.679 and a Hsd17b12 expression (quadriceps muscle; [2]) of 2.376. The Hsp90aa1 expression (quadriceps muscle; [2]) was 1.513, the Hspa1b expression (quadriceps muscle; [2]) was 8.845 and the Hspa9a expression (quadriceps muscle; [2]) was 1.61. It also gave an Ifi27 expression (quadriceps muscle; [2]) of 1.714, an Igf2 expression (quadriceps muscle; [2]) of 1.635 and an Igfbp5 expression (quadriceps muscle; [2]) of 1.772. The Il6st expression (quadriceps muscle; [2]) was 1.972, the Junb expression (quadriceps muscle; [2]) was 1.792 and the Klf3 expression (quadriceps muscle; [2]) was 1.901. It also gave a Ldhb expression (quadriceps muscle; [2]) of 2.541, a Lig3 expression (quadriceps muscle; [2]) of 2.693 and a Lipe expression (quadriceps muscle; [2]) of 3.032. For the same compound, the Lmx1a expression (quadriceps muscle; [2]) was 4.106, the Lpl expression (quadriceps muscle; [2]) was 1.659 and the Mb expression (quadriceps muscle; [2]) was 1.578. The “Mgl1 / Mgll (monoglyceride lipase) expression” value (quadriceps muscle; [2]) was 1.907, the Mgst1 expression (quadriceps muscle; [2]) was 1.916 and the Mlycd expression (quadriceps muscle; [2]) was 1.781. It also gave a Mpv17l expression (quadriceps muscle; [2]) of 1.988, a Mybph expression (quadriceps muscle; [2]) of 1.578 and a Myh2 expression (quadriceps muscle; [2]) of 2.194. It also gave a Neurl expression (quadriceps muscle; [2]) of 1.941, a Nle1 expression (quadriceps muscle; [2]) of 1.831 and a Nr1d2 expression (quadriceps muscle; [2]) of 1.794. The Nr4a2 expression (quadriceps muscle; [2]) was 1.776, the Pck1 expression (quadriceps muscle; [2]) was 3.518 and the Pdk4 expression (quadriceps muscle; [2]) was 2.27. It also gave a Ppp2r1b expression (quadriceps muscle; [2]) of 2.509, a Ptplb expression (quadriceps muscle; [2]) of 2.38 and a Rab5b expression (quadriceps muscle; [2]) of 1.603. For the same compound, the Rbbp4 expression (quadriceps muscle; [2]) was 2.865, the Rbp4 expression (quadriceps muscle; [2]) was 2.065 and the Retn expression (quadriceps muscle; [2]) was 4.114. It also gave a Rpol-4 expression (quadriceps muscle; [2]) of 2.498, a Rragd expression (quadriceps muscle; [2]) of 2.101 and a Rtbdn expression (quadriceps muscle; [2]) of 2.32. The Scd1 expression (quadriceps muscle; [2]) was 6.494, the Scd2 expression (quadriceps muscle; [2]) was 1.849 and the Serpina1a expression (quadriceps muscle; [2]) was 0.396. The Serpinf1 expression (quadriceps muscle; [2]) was 7.765, the Slc1a5 expression (quadriceps muscle; [2]) was 1.939 and the Slc25a20 expression (quadriceps muscle; [2]) was 1.865. For the same compound, the Slc27a1 expression (quadriceps muscle; [2]) was 3.58, the Sln expression (quadriceps muscle; [2]) was 0.363 and the Sod3 expression (quadriceps muscle; [2]) was 1.606. The Surf4 expression (quadriceps muscle; [2]) was 2.091, the Svs5 expression (quadriceps muscle; [2]) was 0.095 and the Tgfbr2 expression (quadriceps muscle; [2]) was 2.13. It also gave a Thrsp expression (quadriceps muscle; [2]) of 2.685, a Tkt expression (quadriceps muscle; [2]) of 2.256 and a Tpcn1 expression (quadriceps muscle; [2]) of 2.842. The Trf expression (quadriceps muscle; [2]) was 1.907, the Trim35 expression (quadriceps muscle; [2]) was 1.856 and the Ucp3 expression (quadriceps muscle; [2]) was 2.943. It also gave a Wnt7b expression (quadriceps muscle; [2]) of 4.449, a Ywhag expression (quadriceps muscle; [2]) of 1.87 and a Zfp261 expression (quadriceps muscle; [2]) of 1.847. The “erythroid differentiation regulator 1 expression” value (quadriceps muscle; [2]) was 0.619, the Acly expression (quadriceps muscle; [3]) was 2.458 and the Cat expression (quadriceps muscle; [3]) was 1.728. For the same compound, the Hsp90aa1 expression (quadriceps muscle; [3]) was 1.455, the Slc25a20 expression (quadriceps muscle; [3]) was 1.704 and the Ankrd1 expression (quadriceps muscle; [4]) was 4.235. For the same compound, the Cryab expression (quadriceps muscle; [4]) was 1.561, the Crygf expression (quadriceps muscle; [4]) was 1.801 and the Dnaja4 expression (quadriceps muscle; [4]) was 1.756. The Hspb1 expression (quadriceps muscle; [4]) was 1.815, the Hspb7 expression (quadriceps muscle; [4]) was 3.414 and the Mt1 expression (quadriceps muscle; [4]) was 2.364. For the same compound, the Mt2 expression (quadriceps muscle; [4]) was 2.151, the Smad3 expression (quadriceps muscle; [4]) was 1.841 and the Tnfrsf12a expression (quadriceps muscle; [4]) was 1.759. For the same compound, the “number of genes regulated in quadriceps” value (quadriceps muscle; combination of GW1516 and exercise) was 130 genes and the “myoglobin, UCP3, cytochrome c, and SCDl protein expression” value [1] was “robust up regulation”.
